Laboratory results taken from ChEMBL document CHEMBL2429713, “Toward drugs for protease-activated receptor 2 (PAR2)” (J Med Chem, 2013).
One block for each molecule: values may come before it. *1 amine or outer side, *2 acyl side, *3 side chain or, on linkers, in order; H or OH if unused. Where a SMILES comes first, the peptide text is derived from it. [ ]: non-standard residue; d: D form. The star is where a group is joined. X1 = CCCCCCCCCCCCCCCC(=O)OCCOCCOCCNCCC[C@H](N[*:1])C(=O)[*:2]; Phe(4-NO2) = N[C@@H](Cc1ccc([N+](=O)[O-])cc1)C(=O)O; 4Thiazolecarbonyl(2-NH2) = Nc1nc(C(=O)*)cs1; Palmitoyl = CCCCCCCCCCCCCCCC(=O)*; Orn = NCCC[C@H](N)C(=O)O; 2Furoyl = O=C(c1ccco1)*

Assays:
[1] = target: T1, Proteinase-activated receptor 2 (Homo sapiens, UniProt P55085); test: Antagonist activity at PAR2 in human HT-29 cells assessed as inhibition of agonist-induced calcium mobilization; format: functional, cell-based
T1 sequence (P55085 whole entry): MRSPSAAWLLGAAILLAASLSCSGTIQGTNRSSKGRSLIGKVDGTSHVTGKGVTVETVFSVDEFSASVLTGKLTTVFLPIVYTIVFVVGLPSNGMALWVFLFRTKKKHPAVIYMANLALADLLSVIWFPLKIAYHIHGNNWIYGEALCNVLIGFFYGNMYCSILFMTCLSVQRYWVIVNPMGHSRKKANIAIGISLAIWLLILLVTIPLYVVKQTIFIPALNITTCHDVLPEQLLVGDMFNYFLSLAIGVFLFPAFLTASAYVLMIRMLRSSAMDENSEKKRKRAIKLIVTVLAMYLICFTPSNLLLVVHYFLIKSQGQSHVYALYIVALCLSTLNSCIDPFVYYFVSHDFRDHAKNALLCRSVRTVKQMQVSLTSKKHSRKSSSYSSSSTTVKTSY

[2] = target: T1, Proteinase-activated receptor 2; test: Antagonist activity at PAR2 in human HCT15 cells assessed as inhibition of SLIGKV-NH2-induced intracellular calcium release; format: functional, cell-based, HCT-15
[3] = target: T1, Proteinase-activated receptor 2; test: Antagonist activity at PAR2 in human HT-29 cells assessed as inhibition of 2f-LIGRLO-NH2-induced intracellular calcium release; format: functional, cell-based
[4] = target: T1, Proteinase-activated receptor 2; test: Antagonist activity at PAR2 in human HT-29 cells assessed as inhibition of trypsin-induced intracellular calcium release; format: functional, cell-based
[5] = target: T1, Proteinase-activated receptor 2; test: Antagonist activity at human PAR2 expressed in human NCTC-2544 cells assessed as inhibition of SLIGKV-NH2-induced NFkappaB activation preincubated for 15 to 30 mins followed by SLIGKV-NH2 addition measured after 6 hrs by luciferase reporter gene assay; format: cell-based
[6] = target: T1, Proteinase-activated receptor 2; test: Displacement of [3H]2-furoyl-LIGRL-NH2 from human PAR2 expressed in human NCTC-2544 cells by scintillation counting analysis; format: cell-based
[7] = target: T1, Proteinase-activated receptor 2; test: Agonist activity at human PAR2 expressed in HEK293T cells assessed as increase in intracellular calcium level by bioluminescence assay; format: functional, cell-based, HEK-293T
[8] = target: T1, Proteinase-activated receptor 2; test: Agonist activity at human PAR2 expressed in HEK293T cells assessed as stimulation of phosphatidylinositol hydrolysis after 45 mins by scintillation counting analysis; format: functional, cell-based, HEK-293T
[9] = target: T1, Proteinase-activated receptor 2; test: Agonist activity at PAR2 in human HT-29 cells assessed as increase in intracellular calcium release; format: functional, cell-based
[10] = target: T1, Proteinase-activated receptor 2; test: Displacement of [3H]-2-furoyl-LIGRL-NH2 from human PAR2 expressed in human NCTC-2544 cells after 60 mins by scintillation counting analysis; format: cell-based
[11] = target: T2, Proteinase-activated receptor 2 (Rattus norvegicus, UniProt Q63645); test: Antagonist activity at rat PAR2 expressed in rat KNRK cells assessed as inhibition of trypsin-induced receptor activation; format: cell-based
T2 sequence (Q63645 whole entry): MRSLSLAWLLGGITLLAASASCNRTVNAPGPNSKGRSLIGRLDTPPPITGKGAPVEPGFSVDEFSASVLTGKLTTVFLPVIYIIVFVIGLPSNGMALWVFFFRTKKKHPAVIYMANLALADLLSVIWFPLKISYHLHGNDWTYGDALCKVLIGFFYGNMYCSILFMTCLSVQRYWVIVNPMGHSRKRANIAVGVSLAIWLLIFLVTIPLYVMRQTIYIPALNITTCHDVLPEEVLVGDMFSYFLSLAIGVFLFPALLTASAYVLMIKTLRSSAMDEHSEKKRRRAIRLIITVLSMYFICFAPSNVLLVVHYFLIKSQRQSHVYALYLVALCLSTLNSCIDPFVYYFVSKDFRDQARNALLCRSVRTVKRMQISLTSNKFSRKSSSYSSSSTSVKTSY

[12] = target: T1, Proteinase-activated receptor 2; test: Antagonist activity at PAR2 in human HaCaT cells assessed as inhibition of SLIGKV-NH2-induced intracellular calcium release; format: functional, cell-based
[13] = target: T1, Proteinase-activated receptor 2; test: Agonist activity at PAR2 (unknown origin) by cell-based assay
[14] = target: Proteinase-activated receptor 2 (Homo sapiens) (UniProt P55085); test: Antagonist activity at PAR2 in human SW620 cells assessed as inhibition of SLIGRL-NH2-induced intracellular calcium release at 6 uM relative to control; format: functional, cell-based; parameters: scale not given: the % may be the effect or the level left; details: SW-620
[15] = target: T3, Proteinase-activated receptor 1 (Homo sapiens, UniProt P25116); test: Agonist activity at human PAR1 expressed in African green monkey COS7 cells assessed as stimulation of inositol triphosphate production; format: functional, cell-based, COS-7
T3 sequence (P25116 whole entry): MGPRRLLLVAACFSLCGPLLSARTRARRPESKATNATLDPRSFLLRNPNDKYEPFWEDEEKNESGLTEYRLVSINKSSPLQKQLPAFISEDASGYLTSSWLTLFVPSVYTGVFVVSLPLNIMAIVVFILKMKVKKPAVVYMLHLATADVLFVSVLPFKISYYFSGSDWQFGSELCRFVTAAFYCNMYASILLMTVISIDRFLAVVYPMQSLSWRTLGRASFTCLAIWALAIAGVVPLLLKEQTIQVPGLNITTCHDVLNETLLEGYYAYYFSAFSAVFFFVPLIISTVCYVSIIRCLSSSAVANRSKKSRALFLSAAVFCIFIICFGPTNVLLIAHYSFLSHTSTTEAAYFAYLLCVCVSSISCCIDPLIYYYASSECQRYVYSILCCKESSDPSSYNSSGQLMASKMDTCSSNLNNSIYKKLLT

[16] = target: T1, Proteinase-activated receptor 2; test: Agonist activity at PAR2 in human 16HBE14o- cells assessed as increase in MAPK level; format: cell-based
[17] = target: T1, Proteinase-activated receptor 2; test: Agonist activity at PAR2 in human 16HBE14o- cells assessed as increase in intracellular calcium level; format: functional, cell-based
[18] = target: T1, Proteinase-activated receptor 2; test: Antagonist activity at human PAR2 expressed in human A549 cells coexpressing TACR1 assessed as inhibition of substance P-induced IL-8 production by ELISA; format: cell-based
[19] = target: T1, Proteinase-activated receptor 2; test: Antagonist activity at human PAR2 expressed in human A549 cells assessed as inhibition of 2f-LIGRLO-NH2-induced NFkappaB activation by luciferase reporter gene assay; format: cell-based

IC50 [1]: 2000 nM
SMILES: CC[C@H](C)[C@H](NC(=O)[C@H](CC1CCCCC1)NC(=O)c1ccno1)C(=O)N1CCC2(CCc3ccccc32)CC1

IC50 [3]: 400 nM
IC50 [4]: 1900 nM
SMILES: CC[C@H](C)[C@H](NC(=O)[C@H](CC1CCCCC1)NC(=O)c1ccno1)C(=O)NCc1ccccc1OC

IC50 [5]: 1100 nM
Ki [6]: 600 nM
SMILES: NCCCC[C@H](NC(=O)CNC(=O)Nc1ccc2c(c1)c(CN1CCCC1)cn2Cc1c(Cl)cccc1Cl)C(=O)N[C@@H](Cc1ccccc1)C(=O)NC(c1ccccc1)c1ccccc1

EC50 [9]: 200 nM
SMILES: CC[C@H](C)[C@H](NC(=O)[C@H](Cc1ccc([N+](=O)[O-])cc1)NC(=O)[C@H](CCCN=C(N)N)NC(=O)CNC(=O)[C@@H](NC(=O)[C@H](CC(C)C)NC(=O)c1ccco1)[C@@H](C)CC)C(N)=O (2Furoyl-LIGR[Phe(4-NO2)]I-NH2)

IC50 [11]: 50000 nM
SMILES: CC[C@H](C)[C@H](NC(=O)[C@H](CO)NC(=O)[C@@H](N)CC(C)C)C(=O)NCC(=O)N[C@@H](CCCNC(=N)N)C(=O)N[C@@H](CC(C)C)C(N)=O (H-LSIGRL-NH2)

EC50 [15]: 180 nM
SMILES: CCCCCCCCCCCCCCCC(=O)N[C@@H](CCCN=C(N)N)C(=O)N[C@@H](CS)C(=O)N[C@@H](CC(C)C)C(=O)N[C@@H](CO)C(=O)N[C@@H](CO)C(=O)N[C@@H](CO)C(=O)N[C@@H](C)C(=O)N[C@H](C(=O)N[C@@H](C)C(=O)N[C@@H](CC(N)=O)C(=O)N[C@@H](CCCN=C(N)N)C(=O)N[C@@H](CO)C(=O)N[C@@H](CCCCN)C(=O)N[C@@H](CCCCN)C(=O)N[C@@H](CO)C(=O)N[C@@H](CCCN=C(N)N)C(=O)N[C@@H](CC(C)C)C(=O)N[C@@H](Cc1ccccc1)C(=O)O)C(C)C (Palmitoyl-RCLSSSAVANRSKKSRLF-OH)

Further lines, the molecule ahead of its results:

SMILES: CC[C@H](C)[C@H](NC(=O)[C@H](CC1CCCCC1)NC(=O)c1ccno1)C(=O)N1CCC2(C=Cc3ccccc32)CC1
IC50 [1]: 1000 nM

SMILES: COc1ccc(Br)c(C(=O)Nn2c(-c3ccc(F)cc3)nc3ccccc3c2=O)c1
IC50 [2]: 34000 nM

SMILES: Cc1cccc(Cn2c(C)nc3cc(C(=O)N4CCCCC4)ccc32)c1
IC50 [2]: 243000 nM

SMILES: C/C(=N\NC(=O)[C@@H]1C(=O)NC[C@H]1c1ccccc1)c1cccc(Br)c1
EC50 [7]: 30 nM
EC50 [8]: 30 nM

SMILES: CC[C@H](C)[C@H](NC(=O)[C@H](CC(C)C)NC(=O)c1ccco1)C(=O)NCC(=O)N[C@@H](CCCN=C(N)N)C(=O)N[C@@H](CC(C)C)C(=O)N[C@@H](CCCN)C(N)=O (2Furoyl-LIGRL[Orn]-NH2)
EC50 [9]: 200 nM
IC50 [10]: 100 nM

SMILES: CC(C)C[C@H](NC(=O)[C@H](CC(C)C)NC(=O)[C@H](CO)NC(=O)[C@@H](N)Cc1ccccc1)C(=O)N[C@@H](CCCNC(=N)N)C(=O)N[C@@H](Cc1ccc(O)cc1)C(N)=O (H-FSLLRY-NH2)
IC50 [11]: 50000 nM

SMILES: CC(C)C[C@H](NC(=O)[C@H](CC(C)C)NC(=O)[C@H](CO)NC(=O)[C@H](Cc1ccccc1)NC(=O)[C@H](CCCNC(=N)N)NC(=O)[C@@H](N)CCCNC(=N)N)C(=O)N[C@@H](CCCNC(=N)N)C(=O)N[C@@H](Cc1ccc(O)cc1)C(N)=O (H-RRFSLLRY-NH2)
IC50 [12]: 700000 nM

SMILES: CC[C@H](C)[C@H](NC(=O)[C@H](CC(C)C)NC(=O)[C@@H](N)CO)C(=O)NCC(=O)N[C@@H](CCCNC(=N)N)C(=O)N[C@@H](CC(C)C)C(N)=O (H-SLIGRL-NH2)
EC50 [13]: 5000 nM

SMILES: CCCCCCCCCCCCCCCC(=O)NCC(=O)N[C@@H](CC(=O)O)C(=O)N[C@@H](CCC(=O)O)C(=O)N[C@@H](CC(N)=O)C(=O)N[C@@H](CO)C(=O)N[C@@H](CCC(=O)O)C(=O)N[C@@H](CCCCN)C(=O)N[C@@H](CCCCN)C(=O)N[C@@H](CCCNC(=N)N)C(=O)N[C@@H](CCCCN)C(=O)N[C@@H](CCC(N)=O)C(=O)N[C@@H](C)C(=O)N[C@H](C(=O)N[C@@H](CCCCN)C(=O)O)[C@@H](C)CC (Palmitoyl-GDENSEKKRKQAIK-OH)
Activity [14]: 53%

SMILES: CCCCCCCCCCCCCCCC(=O)OCCOCCOCCNCCC[C@H](NC(=O)[C@H](CC(C)C)NC(=O)[C@H](CCCNC(=N)N)NC(=O)CNC(=O)[C@@H](NC(=O)[C@H](CC(C)C)NC(=O)c1csc(N)n1)[C@@H](C)CC)C(N)=O ({4Thiazolecarbonyl(2-NH2)}-LIGRL[X1]-NH2)
EC50 [16]: 10 nM
EC50 [17]: 4 nM

SMILES: CC(C)[C@]12O[C@H]1[C@@H]1O[C@]13[C@]1(O[C@H]1C[C@H]1C4=C(CC[C@@]13C)C(=O)OC4)[C@@H]2O [TRIPTOLIDE]
IC50 [18]: 23 nM
IC50 [19]: 14 nM
